According to paper PMC10763615, “Identification and engineering of potent cyclic peptides with selective or promiscuous binding through biochemical profiling and bioinformatic data analysis” (RSC Chemical Biology, 2023):
Like-named read-outs stand apart in the source and are kept apart here.

Experiments:
FGF-R4 ECD [1] = biological target: T1, FGF-R4 ECD (Homo sapiens, UniProt P22455); test: single concentration BLI of crude peptides; format: binding; details: crude NNK peptides, single concentration BLI (Table S3); read-out: KD (4)
T1 construct: DNA constructs for the extracellular domain (ECD) of human FGF-; HPC4 (C); made in house; host or cells: HEK 293-6E
T1 sequence (P22455 22-369 limits assumed): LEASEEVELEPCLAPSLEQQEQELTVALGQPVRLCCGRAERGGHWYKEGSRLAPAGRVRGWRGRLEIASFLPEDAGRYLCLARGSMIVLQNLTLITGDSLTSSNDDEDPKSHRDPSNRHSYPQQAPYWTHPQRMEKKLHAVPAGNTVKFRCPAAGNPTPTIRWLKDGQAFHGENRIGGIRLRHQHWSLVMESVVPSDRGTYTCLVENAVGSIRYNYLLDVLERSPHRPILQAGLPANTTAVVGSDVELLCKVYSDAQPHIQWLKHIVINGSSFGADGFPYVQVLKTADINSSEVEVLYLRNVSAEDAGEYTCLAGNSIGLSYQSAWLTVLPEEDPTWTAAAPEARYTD
Summary of the method: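 Biotinylated FGF-R ECD on streptavidin biosensors was dipped into ~1 μM crude peptide in PBS pH7.4 with 0.05% Tween-20 and 0.01% BSA for association, then into buffer for dissociation, and followed by BLI. Fitted KD values were adjusted for peptide concentration measured by UPLC-CAD.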

[2] = biological target: T2, FGFR1c/KLB (Fc-fused human FGF-R1alpha(IIIc) with beta-klotho) (Homo sapiens, UniProt P11362); test: AlphaScreen FGF21 competitive binding assay
T2 sequence (P11362 22-376 limits assumed): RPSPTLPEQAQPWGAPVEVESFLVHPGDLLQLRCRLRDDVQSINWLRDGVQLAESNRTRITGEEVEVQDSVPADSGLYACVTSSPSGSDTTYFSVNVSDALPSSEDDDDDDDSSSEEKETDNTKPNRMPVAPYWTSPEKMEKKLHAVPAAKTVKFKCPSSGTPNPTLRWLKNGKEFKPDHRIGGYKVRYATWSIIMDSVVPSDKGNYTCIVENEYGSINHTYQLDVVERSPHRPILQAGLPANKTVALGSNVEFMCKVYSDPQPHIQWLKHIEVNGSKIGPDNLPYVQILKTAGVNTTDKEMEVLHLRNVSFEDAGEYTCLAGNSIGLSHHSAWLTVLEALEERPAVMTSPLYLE

FGF-R1C ECD [3] = biological target: T3, FGF-R1C ECD (Homo sapiens, UniProt P11362); test: biochemical; format: binding; set-up: DNA constructs for the extracellular domain (ECD) of human FGF-; HPC4 (C); made in house; host or cells: HEK 293-6E
T3 sequence (P11362 22-376 limits assumed): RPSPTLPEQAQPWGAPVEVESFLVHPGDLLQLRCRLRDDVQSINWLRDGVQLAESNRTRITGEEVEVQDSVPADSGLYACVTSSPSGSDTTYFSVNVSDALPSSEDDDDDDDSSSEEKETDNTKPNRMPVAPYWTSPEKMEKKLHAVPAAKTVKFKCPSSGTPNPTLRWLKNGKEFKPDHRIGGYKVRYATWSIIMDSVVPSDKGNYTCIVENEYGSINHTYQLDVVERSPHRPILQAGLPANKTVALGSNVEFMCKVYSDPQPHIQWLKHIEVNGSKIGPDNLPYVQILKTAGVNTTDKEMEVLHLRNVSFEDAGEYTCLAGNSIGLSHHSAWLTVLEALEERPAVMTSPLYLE
Summary of the method: (§1)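 Streptavidin biosensors carrying biotinylated FGF receptor ECD were immersed in peptide (~1 μM for crude single-point runs, a concentration series for purified peptides) and then in peptide-free buffer. KD was obtained by fitting the BLI association and dissociation curves.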

FGF-R3C ECD [4] = biological target: T4, FGF-R3C ECD (Homo sapiens, UniProt P22607); test: biochemical; format: binding; set-up: DNA constructs for the extracellular domain (ECD) of human FGF-; HPC4 (C); made in house; host or cells: HEK 293-6E
T4 sequence (P22607 23-375 limits assumed): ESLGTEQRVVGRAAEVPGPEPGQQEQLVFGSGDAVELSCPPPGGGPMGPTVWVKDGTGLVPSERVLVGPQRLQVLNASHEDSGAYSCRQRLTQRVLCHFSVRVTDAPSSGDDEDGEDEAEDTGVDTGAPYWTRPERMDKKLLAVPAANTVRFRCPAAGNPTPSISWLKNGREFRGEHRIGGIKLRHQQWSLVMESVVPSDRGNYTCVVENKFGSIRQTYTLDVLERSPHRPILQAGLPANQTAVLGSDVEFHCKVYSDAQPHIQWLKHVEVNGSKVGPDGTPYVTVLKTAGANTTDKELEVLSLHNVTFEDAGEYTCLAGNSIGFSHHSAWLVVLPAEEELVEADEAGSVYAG
Summary of the method: as §1

FGF-R4 ECD [5] = biological target: T1, FGF-R4 ECD; test: multi-concentration BLI of purified peptides; format: binding; details: purified NNK library peptides
Summary of the method: as §1

FGF-R1C ECD [6] = biological target: T3, FGF-R1C ECD; test: biochemical
Summary of the method: as §1

FGF-R3C ECD [7] = biological target: T4, FGF-R3C ECD; test: biochemical
Summary of the method: as §1

[8] = biological target: T5, FGFR4/KLB (Fc-fused human FGF-R4 with beta-klotho) (Homo sapiens, UniProt P22455); test: AlphaScreen FGF21 competitive binding assay
T5 sequence (P22455 22-369 limits assumed): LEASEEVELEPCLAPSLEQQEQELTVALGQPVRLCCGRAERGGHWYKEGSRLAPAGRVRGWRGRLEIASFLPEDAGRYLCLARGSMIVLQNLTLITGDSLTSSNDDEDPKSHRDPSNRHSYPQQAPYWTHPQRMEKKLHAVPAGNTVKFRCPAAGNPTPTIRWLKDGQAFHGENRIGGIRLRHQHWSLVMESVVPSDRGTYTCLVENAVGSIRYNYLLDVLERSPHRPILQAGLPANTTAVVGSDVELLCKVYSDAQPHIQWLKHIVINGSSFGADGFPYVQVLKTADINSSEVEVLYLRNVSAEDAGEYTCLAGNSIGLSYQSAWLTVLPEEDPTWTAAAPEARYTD

[9] = biological target: T6, FGFR3c/BKL (Fc-fused human FGF-R3alpha(IIIc) with beta-klotho) (Homo sapiens, UniProt P22607); test: AlphaScreen FGF21 competitive binding assay
T6 sequence (P22607 23-375 limits assumed): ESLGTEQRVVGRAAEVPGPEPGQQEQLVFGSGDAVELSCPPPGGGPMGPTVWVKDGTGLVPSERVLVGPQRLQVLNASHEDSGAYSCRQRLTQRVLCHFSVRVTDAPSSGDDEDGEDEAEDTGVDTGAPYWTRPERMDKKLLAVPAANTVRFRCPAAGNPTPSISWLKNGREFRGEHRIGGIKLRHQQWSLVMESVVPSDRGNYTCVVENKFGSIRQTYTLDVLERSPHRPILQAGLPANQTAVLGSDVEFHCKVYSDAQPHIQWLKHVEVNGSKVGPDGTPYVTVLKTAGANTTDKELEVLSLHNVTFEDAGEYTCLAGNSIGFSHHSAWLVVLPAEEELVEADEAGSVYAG
Procedure: Alphascreen binding assay
The competitive binding assay was carried out according to the methods detailed in Hansen. et al using
AlphaScreen.3 All reagents and samples were prepared in assay buffer: 40mM Hepes, 140mM NaCl, 1mM
CaCl2, 0,05% Tween20, pH=7.5, 0.1% BSA. In brief, recombinant human beta-klotho (R&D Systems) was
preincubated for 60 min with the ectodomain, either Fc-fused human FGF-R1alpha(IIIc), FGF-R3alpha(IIIc)
or FGF-R4 (R&D Systems), and the mixture was added to the test peptides in OptiPlate™ (PerkinElmer).
Biotinylated FGF21 and heparin were further added to each well. AlphaScreen bead mix (1:1 mix of Protein
A acceptor beads/ streptavidin-coated donor beads, PerkinElmer) were added to each well incubated
overnight at RT in the dark, and measured on a plate reader (Envision). Assays were carried out in triplicates
with concentrations ranging from 3, 10, 30, 100, 300 ,1000 and 3000 nM of peptide. No peptide control
(media only) was used as a negative control, and unlabeled FGF21 and FGF1 as positive control.
competing with biotinylated natural FGF21 ligand.

SMILES	Kd (FGF-R4 ECD [1])	IC50 [2]	Kd (FGF-R1C ECD [3])	Kd (FGF-R3C ECD [4])	Kd (FGF-R4 ECD [5])	Kd (FGF-R1C ECD [6])	Kd (FGF-R3C ECD [7])	IC50 [8]	IC50 [9]
CC[C@H](C)[C@@H]1NC(=O)[C@@H](NC(=O)[C@@H](N)CCSC)CSSC[C@@H](C(=O)NCC(=O)N[C@@H](CO)C(=O)NCC(=O)N[C@@H](CO)C(=O)N[C@@H](CC(=O)O)C(=O)N[C@@H](Cc2ccc(O)cc2)C(=O)N[C@@H](CCCCN)C(=O)N[C@@H](CC(=O)O)C(=O)N[C@@H](CC(=O)O)C(=O)N[C@@H](CC(=O)O)C(=O)N[C@@H](CC(=O)O)C(=O)N[C@@H](CCCCN)C(N)=O)NC(=O)[C@H](CCCNC(=N)N)NC(=O)[C@H]([C@@H](C)O)NC(=O)[C@H](Cc2c[nH]c3ccccc23)NC(=O)[C@H](Cc2ccc(O)cc2)NC(=O)[C@H](CCC(N)=O)NC(=O)[C@H](Cc2ccc(O)cc2)NC(=O)[C@H]([C@@H](C)O)NC(=O)[C@H](Cc2ccc(O)cc2)NC(=O)[C@H](Cc2c[nH]c3ccccc23)NC(=O)[C@H](CCCCN)NC(=O)CNC1=O [1C.1]	> 10000 nM	249 nM	488 nM	> 10 µM	> 1000 nM	111 nM	> 1000 nM	> 1000 nM	> 1000 nM
CSCC[C@H](NC(C)=O)C(=O)N[C@H]1CSSC[C@@H](C(=O)NCC(=O)N[C@@H](CO)C(=O)NCC(=O)N[C@@H](CO)C(=O)N[C@@H](CC(=O)O)C(=O)N[C@@H](Cc2ccc(O)cc2)C(=O)N[C@@H](CCCCN)C(=O)N[C@@H](CC(=O)O)C(=O)N[C@@H](CC(=O)O)C(=O)N[C@@H](CC(=O)O)C(=O)N[C@@H](CC(=O)O)C(=O)N[C@@H](CCCCN)C(N)=O)NC(=O)[C@H](CC(C)C)NC(=O)[C@H](Cc2c[nH]c3ccccc23)NC(=O)[C@H](C)NC(=O)[C@H](Cc2ccccc2)NC(=O)[C@H](Cc2ccccc2)NC(=O)[C@H](Cc2c[nH]c3ccccc23)NC(=O)[C@@H]2CCCN2C(=O)[C@H](Cc2c[nH]cn2)NC(=O)[C@H](CCCCN)NC(=O)[C@H](Cc2ccccc2)NC1=O [4.5]	35 nM	> 1000 nM	> 10000 nM	> 10 µM	233 nM	> 1000 nM	> 1000 nM	284 nM	> 1000 nM
CC[C@H](C)[C@@H]1NC(=O)[C@@H](NC(=O)[C@@H](N)CCSC)CSSC[C@@H](C(=O)NCC(=O)N[C@@H](CO)C(=O)NCC(=O)N[C@@H](CO)C(=O)N[C@@H](CC(=O)O)C(=O)N[C@@H](Cc2ccc(O)cc2)C(=O)N[C@@H](CCCCN)C(=O)N[C@@H](CC(=O)O)C(=O)N[C@@H](CC(=O)O)C(=O)N[C@@H](CC(=O)O)C(=O)N[C@@H](CC(=O)O)C(=O)N[C@@H](CCCCN)C(N)=O)NC(=O)[C@H](CC(C)C)NC(=O)[C@H](Cc2c[nH]c3ccccc23)NC(=O)[C@H](Cc2ccccc2)NC(=O)[C@H](CC(C)C)NC(=O)[C@@H]2CCCN2C(=O)[C@H](CCC(N)=O)NC(=O)[C@H](CCCNC(=N)N)NC(=O)[C@H](C)NC(=O)[C@@H]2CCCN2C(=O)[C@H](Cc2c[nH]c3ccccc23)NC(=O)[C@H](CCCNC(=N)N)NC1=O [1C.9]	82 nM	17 nM	19 nM	0.112 µM	82 nM	1 nM	47 nM	67 nM	15 nM
